# “Also recorded” adds a separate entry of the source. Where two headings read alike, the source gives them in different places.
# Columns and labels:
# [1] = biological target: T1, Coronary A2-Adenosine Receptor (Canis lupus familiaris, UniProt P11617); assay: Coronary vasoactivity in the anesthetized, open-chest dog (intracoronary infusion; MPR from EC50); assay type: in vivo; settings: for coronary vasoactivity (in words): intracoronary infusion; for A2 Receptor MPR Relative to MeAdo: molar potency ratio relative to N6-methyladenosine (set equal to 1.0); for A2 Receptor MPR Relative to MeAdo / A2 Receptor MPR Relative to Ado: coronary; for A2 Receptor MPR Relative to Ado: molar potency ratio: EC50 of adenosine divided by that of the analogue; for A2/A1 potency ratio (MPR(A2)/MPR(A1)): ratio of MPR (MeAdo) at dog coronary A2 receptor to MPR at rat brain A1 receptor; for A2 versus A1 receptor selectivity (in words): dog coronary A2 versus rat brain A1
# T1 construct: The assay of coronary vasoactivity in the anesthetized, open-chest dog; from tissue; host or cells: coronary vessels in situ, anesthetized open-chest dog
# Source text: (§1) In the present invention there is compared the A1 - and A2 -potencies of a series of long-chain derivatives of adenosine suitable for attachment to "carriers," such as peptides or proteins, and for immobilization to polymeric matrices for affinity chromatography of adenosine receptors. The method employed is a comparison of increasing coronary blood flow via activation of an A2 -adenosine receptor versus an A1 -binding assay in rat brain.
# (§2) The potencies at A2 -receptors (Table 1) are expressed as a molar potency ratio of the EC50 value of adenosine divided by that of the adenosine analogue. A common reference compound on which to base molar potency ratios was needed to facilitate comparison of activities at A1 and A2 receptors. Adenosine itself cannot be used as a reference in the A1 binding assay since treatment of the membranes with adenosine deaminase is essential. […] Thus, MeAdo was used as a suitable reference compound.
# The assay of coronary vasoactivity in the anesthetized, open-chest dog, is described by Kusachi et al, J. Med. Chem., in press, and Olsson, et al, J. Circ. […] The assay estimates an EC-50, the concentration of analogue which produces a half maximum change in coronary conductance (reciprocal resistance). To reduce between-animal variability activity is expressed as a molar potency ratio (MPR) the value of the EC-50 of adenosine divided by that of the analogue. Owing to the low water solubility of some of the analogues, solutions for intracoronary infusion were prepared by diluting stock solutions in dimethyl sulfoxide. In such instances, solutions of adenosine used to establish a standard of potency also contained dimethyl sulfoxide. […]
# [2] = tested on: A1-receptors; settings: background; cited from earlier work
# [3] = tested on: A2-receptors; settings: background; cited from earlier work
# [4] = biological target: T2, Brain A1-adenosine receptor (Rattus norvegicus, UniProt P25099); assay: A1-binding assay: antagonism of binding of 1nM [3H]N6-cyclohexyladenosine to rat cerebral cortical membranes; settings: for A1 Receptor MPR Relative to MeAdo: molar potency ratio derived from Ki values, rat cerebral cortical membranes
# T2 construct: -cyclohexyladenosine to rat cerebral cortical membranes; from tissue; host or cells: rat cerebral cortical membranes
# T2 sequence (P25099 1-326): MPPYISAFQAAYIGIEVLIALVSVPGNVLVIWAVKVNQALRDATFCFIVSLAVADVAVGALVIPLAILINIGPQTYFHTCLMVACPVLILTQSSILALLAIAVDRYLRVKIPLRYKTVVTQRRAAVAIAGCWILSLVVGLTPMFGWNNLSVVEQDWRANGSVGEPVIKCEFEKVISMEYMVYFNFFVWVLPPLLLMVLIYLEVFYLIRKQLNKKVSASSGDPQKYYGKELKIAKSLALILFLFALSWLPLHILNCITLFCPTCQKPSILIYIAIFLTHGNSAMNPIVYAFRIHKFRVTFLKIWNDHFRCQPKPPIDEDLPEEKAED
# Source text: as §1
# ^b Molar potency ratio relative to adenosine, derived from Ki
# values for antagonism of binding of 1nM [^3 H]N^6
# -cyclohexyladenosine to rat cerebral cortical membranes.
# as §2
# [5] = Octanol water partition coefficients; assay type: physicochemical; settings: for logP: octanol water, read-out: octanol water partition coefficient
# Source text: B. Certain of the conjugates have ionizable groups on the attached chain. These groups alter the biodistribution of the compounds and make them less likely to enter the brain and produce central depressant effects. The effect of charged groups is reflected in octanol water partition coefficients as follows: […]
# [6] = Entry into the brain and central side effects; settings: in vivo
# [7] = biological target: T3, A2-adenosine receptor (adenylate cyclase, human platelet membranes) (Homo sapiens, UniProt P29274); assay: Stimulation of adenylate cyclase in human platelet membranes; assay type: biochemical
# T3 construct: stimulation of adenylate cyclase in human platelet membranes; from tissue; host or cells: human platelet membranes
# T3 sequence (P29274 whole entry): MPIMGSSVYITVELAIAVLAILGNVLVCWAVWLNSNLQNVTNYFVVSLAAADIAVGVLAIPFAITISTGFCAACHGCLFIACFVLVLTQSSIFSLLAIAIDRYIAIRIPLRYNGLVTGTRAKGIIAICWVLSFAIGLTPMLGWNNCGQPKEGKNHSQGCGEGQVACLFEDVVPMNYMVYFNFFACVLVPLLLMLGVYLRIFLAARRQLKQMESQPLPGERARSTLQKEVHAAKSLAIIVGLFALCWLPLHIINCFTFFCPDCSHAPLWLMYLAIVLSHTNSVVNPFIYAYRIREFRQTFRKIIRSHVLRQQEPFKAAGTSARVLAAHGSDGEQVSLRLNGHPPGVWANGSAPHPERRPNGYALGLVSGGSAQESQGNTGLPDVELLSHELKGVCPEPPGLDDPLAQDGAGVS
# T1 sequence (P11617 whole entry, the tested form may be a part): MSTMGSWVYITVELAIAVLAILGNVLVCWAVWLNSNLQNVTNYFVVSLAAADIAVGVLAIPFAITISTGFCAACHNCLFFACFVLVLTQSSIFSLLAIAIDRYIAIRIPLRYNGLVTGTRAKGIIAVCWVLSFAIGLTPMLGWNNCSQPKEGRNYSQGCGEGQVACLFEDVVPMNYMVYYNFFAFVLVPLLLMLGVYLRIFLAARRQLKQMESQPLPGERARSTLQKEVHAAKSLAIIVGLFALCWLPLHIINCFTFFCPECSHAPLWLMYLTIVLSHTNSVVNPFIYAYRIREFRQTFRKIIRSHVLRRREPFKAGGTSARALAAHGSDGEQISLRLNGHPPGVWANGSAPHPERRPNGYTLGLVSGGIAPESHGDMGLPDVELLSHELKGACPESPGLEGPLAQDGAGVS
Compound,A2 Receptor MPR Relative to MeAdo ([1]; dog),A2 Receptor MPR Relative to Ado ([1]; dog),A2/A1 potency ratio (MPR(A2)/MPR(A1)) [1],A1 Receptor MPR Relative to MeAdo [4],coronary vasoactivity (in words) ([1]; dog),also measured
"CCNC(=O)[C@H]1O[C@@H](n2cnc3c(N)ncnc32)[C@H](O)[C@@H]1O [Compound 1, N-Ethyladenosine-5'-uronamide]",,,,,exceptionally potent,"order of potency at A1-receptors [2]: R-PIA, CHA>NECA>S-PIA; potency at A2-receptors (rank in words) [3]: clearly the most potent"
"Nc1nc(Cl)nc2c1ncn2[C@@H]1O[C@H](CO)[C@@H](O)[C@H]1O [Compound 2, 2-Chloroadenosine, reference compound]",540,27,54,10,,
"CNc1ncnc2c1ncn2[C@@H]1O[C@H](CO)[C@@H](O)[C@H]1O [Compound 3, N^6 -methyladenosine, reference compound]",1.0,0.05,1.0,1.0,,"fold weaker than adenosine at A2-receptors ([1]; dog, in vivo): ≥ 20 -fold; fold weaker than adenosine at A1-receptors [4]: at least 10 -fold"
"C[C@H](Cc1ccccc1)Nc1ncnc2c1ncn2[C@@H]1O[C@H](CO)[C@@H](O)[C@H]1O [Compound 4, N^6 -R-1-Phenyl-2-propyladenosine]",,,,,,"logP [5]: 2; brain entry [6]: enters the brain; central side effects [6]: produces central side effects; order of potency at A1-receptors [2]: R-PIA, CHA>NECA>S-PIA"
"OC[C@H]1O[C@@H](n2cnc3c(NC4CCCCC4)ncnc32)[C@H](O)[C@@H]1O [Compound 5, N^6 -cyclohexyladenosine]",,,,,,"order of potency at A1-receptors [2]: R-PIA, CHA>NECA>S-PIA"
"OC[C@H]1O[C@@H](n2cnc3c(Nc4ccccc4)ncnc32)[C@H](O)[C@@H]1O [Compound 6, N^6 -phenyladenosine, reference compound]",28,1.4,1.6,18,can exhibit some activity at this A2 -receptor,
"Cc1ccc(Nc2ncnc3c2ncn3[C@@H]2O[C@H](CO)[C@@H](O)[C@H]2O)cc1 [Compound 7, N^6 -p-tolyladenosine, reference compound]",27,1.35,1.1,24,can exhibit some activity at this A2 -receptor,
CNC(=O)Cc1ccc(Nc2ncnc3c2ncn3[C@@H]2O[C@H](CO)[C@@H](O)[C@H]2O)cc1 [Compound 9],,,,,enhanced activity at both receptor subtypes,
NCCNC(=O)Cc1ccc(NC(=O)Cc2ccc(Nc3ncnc4c3ncn4[C@@H]3O[C@H](CO)[C@@H](O)[C@H]3O)cc2)cc1 [Compound 16],,7.8 ± 2.5,,,three most active analogues; also recorded: high efficacy as a coronary vasodilator,IC50 [7]: 0.98 µM; polarity compared with compound 4 [5]: considerably more polar than 4; logP [5]: -0.81
C[C@@H](Cc1ccccc1)Nc1ncnc2c1ncn2[C@@H]1O[C@H](CO)[C@@H](O)[C@H]1O [S-PIA],,,,,,"order of potency at A1-receptors [2]: R-PIA, CHA>NECA>S-PIA"
Avidin,,,,,lacked coronary vasoactivity,

# The next lines start with results.
A2 Receptor MPR Relative to MeAdo ([1]; dog),A2 Receptor MPR Relative to Ado ([1]; dog),A2/A1 potency ratio (MPR(A2)/MPR(A1)) [1],A1 Receptor MPR Relative to MeAdo [4],Compound,coronary vasoactivity (in words) ([1]; dog),also measured
,,,0.29,"O=C(O)Cc1ccc(Nc2ncnc3c2ncn3[C@@H]2O[C@H](CO)[C@@H](O)[C@H]2O)cc1 [Compound 8, N^6-(4-carboxymethylphenyl)adenosine]",only weakly active,"% increase in flow over control ([1]; @ 21 μM plasma nucleoside concentration achieved during infusion): 27%; A1-binding activity (in words) [4]: only weakly active; IC50 ([7]; human platelet membranes, read-out: IC50 (printed lC50), stimulation of adenylate cyclase): 26 µM; polarity compared with compound 4 [5]: considerably more polar than 4; logP [5]: < -1.4"
42,2.1 ± 1.3,1.2,35,Cc1ccc(NC(=O)Cc2ccc(Nc3ncnc4c3ncn4[C@@H]3O[C@H](CO)[C@@H](O)[C@H]3O)cc2)cc1 [Compound 10],enhanced activity at both receptor subtypes,A1-binding activity (in words) [4]: enhanced activity at both receptor subtypes
60,3.0 ± 0.7,greater than 10,3.3,COC(=O)[C@H](Cc1ccc(NC(=O)Cc2ccc(Nc3ncnc4c3ncn4[C@@H]3O[C@H](CO)[C@@H](O)[C@H]3O)cc2)cc1)NC(=O)C(F)(F)F [Compound 11],,A2/A1 potency ratio (MPR(A2)/MPR(A1)) ([1]; listed as drawing 6): 18
88,4.4 ± 0.4,greater than 10,4.6,CNC(=O)CNC(=O)[C@H](Cc1ccc(NC(=O)Cc2ccc(Nc3ncnc4c3ncn4[C@@H]3O[C@H](CO)[C@@H](O)[C@H]3O)cc2)cc1)NC(=O)OC(C)(C)C [Compound 12],,A2/A1 potency ratio (MPR(A2)/MPR(A1)) ([1]; listed as drawing 7): 19
64,33.2 ± 1.6,2.7,24,COC(=O)Cc1ccc(NC(=O)Cc2ccc(Nc3ncnc4c3ncn4[C@@H]3O[C@H](CO)[C@@H](O)[C@H]3O)cc2)cc1 [Compound 13],,
≥ 100,7.2 ± 1443,,9.0,CNC(=O)Cc1ccc(NC(=O)Cc2ccc(Nc3ncnc4c3ncn4[C@@H]3O[C@H](CO)[C@@H](O)[C@H]3O)cc2)cc1 [Compound 14],three most active analogues,A2 versus A1 receptor selectivity (in words) [1]: highly divergent at A1 and A2 receptors
70,3.5 ± 0.8,5.3,13,NNC(=O)Cc1ccc(NC(=O)Cc2ccc(Nc3ncnc4c3ncn4[C@@H]3O[C@H](CO)[C@@H](O)[C@H]3O)cc2)cc1 [Compound 15],,
56,2.8 ± 0.1,4.2,13,O=C(CCc1ccc(O)cc1)NCCNC(=O)Cc1ccc(NC(=O)Cc2ccc(Nc3ncnc4c3ncn4[C@@H]3O[C@H](CO)[C@@H](O)[C@H]3O)cc2)cc1 [Compound 17],,
60,3.0 ± 0.2,,5.5,O=C(CCCC[C@@H]1SC[C@@H]2NC(=O)N[C@@H]21)NCCNC(=O)Cc1ccc(NC(=O)Cc2ccc(Nc3ncnc4c3ncn4[C@@H]3O[C@H](CO)[C@@H](O)[C@H]3O)cc2)cc1 [Compound 18],,A2 versus A1 receptor selectivity (in words) [1]: highly divergent at A1 and A2 receptors

# Reference: US5284834A, “Adenosine functionalized congeners as cardiovascular treating agents for animals and methods for using same” (priority 1992, dated 1994)
